Laboratory results published in ChEMBL document CHEMBL1201862, “PubChem BioAssay data set” (2004).
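Where inhibition never reached the appropriate level, the endpoint shown equals the highest concentration tested. Otherwise, values were interpolated linearly from a five-concentration, 48-hour dose response in 96-well plates. Abbreviation: GI50, concentration required for 50% inhibition of growth.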 The source made the active and inactive calls. No stated cut-off is given here; in the data, active = GI50 up to about 1.1 µM and inactive = higher.

Legend:
Test in all cases: inhibition of tumour cell growth, NCI panel, 48 h
[1] = tested on: NCI-H23
[2] = tested on: HOP-92
[3] = tested on: OVCAR-3
[4] = tested on: HOP-62
[5] = tested on: HCT-116
[6] = tested on: SK-MEL-2
[7] = tested on: LXFL 529
[8] = tested on: SK-MEL-5
[9] = tested on: SK-MEL-28
[10] = tested on: CCRF-CEM
[11] = tested on: COLO 205
[12] = tested on: A549
[13] = tested on: RPMI-8226
[14] = tested on: RXF 393
[15] = tested on: HCC 2998
[16] = tested on: SF-295
[17] = tested on: U-251

Measured: GI50

NC(=S)N/N=C(/CC(=O)c1ccc([N+](=O)[O-])cc1)C(=O)Nc1ncc([N+](=O)[O-])s1
inactive: [1] > 100 µM | [2] > 100 µM | [3] > 100 µM | [4] > 100 µM | [5] > 100 µM | [6] > 100 µM | [7] 92.5 µM | [8] > 100 µM | [9] > 100 µM | [10] 82.4 µM | [11] > 100 µM | [12] > 100 µM | [13] > 100 µM | [14] > 100 µM | [15] > 100 µM | [16] > 100 µM | [17] > 100 µM

COc1cc(OC)cc(C(=O)Cc2c(C(=O)c3ccccc3)c3ccccc3n2C(=O)c2ccccc2)c1
inactive: [1] 14.4 µM | [2] 3.78 µM | [3] 21.3 µM | [4] 93.5 µM | [5] 23.2 µM | [6] 20.5 µM | [7] 9.95 µM | [8] 13.1 µM | [9] 34.4 µM | [10] 16 µM | [11] 28.6 µM | [12] 25.3 µM | [13] 9.29 µM | [14] 43.6 µM | [15] 43.4 µM | [16] 19.5 µM | [17] 20.2 µM

CC(=O)C1C(=O)NC(=O)C1=O (centres undefined)
inactive: [1] > 100 µM | [2] > 100 µM | [3] > 100 µM | [4] > 100 µM | [5] > 100 µM | [6] > 100 µM | [7] > 100 µM | [8] > 100 µM | [9] > 100 µM | [11] > 100 µM | [13] > 100 µM | [14] > 100 µM | [15] > 100 µM | [16] > 100 µM | [17] > 100 µM

COc1ccc(/C=C(\Cl)c2ccc(OC)cc2)cc1
inactive: [1] > 100 µM | [2] > 100 µM | [3] > 100 µM | [4] > 100 µM | [5] > 100 µM | [7] > 100 µM | [8] > 100 µM | [9] > 100 µM | [10] > 100 µM | [11] > 100 µM | [12] > 100 µM | [13] > 100 µM | [15] > 100 µM | [17] > 100 µM

O=C1C2=C(c3ccccc31)C(c1cccc(Cl)c1)NC(S)=N2 (centres undefined)
inactive: [1] > 100 µM | [2] > 100 µM | [3] > 100 µM | [4] > 100 µM | [5] > 100 µM | [6] > 100 µM | [7] > 100 µM | [8] 55.1 µM | [9] > 100 µM | [10] > 100 µM | [11] > 100 µM | [12] > 100 µM | [13] 88.5 µM | [15] > 100 µM | [16] > 100 µM | [17] > 100 µM

CC(C)N(C(=O)C1(C)CC1)C(C)C
inactive: [1] > 100 µM | [2] > 100 µM | [3] > 100 µM | [4] > 100 µM | [5] > 100 µM | [6] > 100 µM | [7] > 100 µM | [8] > 100 µM | [9] > 100 µM | [10] > 100 µM | [11] > 100 µM | [12] > 100 µM | [13] > 100 µM | [14] > 100 µM | [15] > 100 µM | [16] > 100 µM | [17] > 100 µM

O=C(COc1ccc(Cl)cc1)N1N=C(c2ccc(Cl)cc2)CC1(O)c1ccccc1 (centres undefined)
inactive: [1] 13.1 µM | [2] 21.5 µM | [3] 16.3 µM | [4] 23.4 µM | [5] 12.6 µM | [6] 24.3 µM | [7] 15 µM | [8] 14.5 µM | [9] 18.2 µM | [10] 16.7 µM | [11] 21 µM | [12] 14.3 µM | [13] 7.03 µM | [15] > 37.2 µM | [16] 23.8 µM | [17] 16.7 µM

N#CC(N)(C(=O)C(=O)NCCCNC(=O)C(=O)C(N)(C#N)c1ccc(Cl)cc1)c1ccc(Cl)cc1 (centres undefined)
inactive: [1] > 100 µM | [2] > 100 µM | [3] > 100 µM | [4] > 100 µM | [5] > 100 µM | [6] > 100 µM | [7] > 100 µM | [8] > 100 µM | [9] > 100 µM | [10] > 100 µM | [11] > 100 µM | [12] > 100 µM | [13] > 100 µM | [14] > 100 µM | [15] > 100 µM | [16] > 100 µM | [17] > 100 µM
